This is an account of results in patent US20150150892A1, “METHODS AND PRODUCTS RELATED TO LUNG CANCER” (Massachusetts Institute of Technology, priority 2012, published 2015).

Experiment [1] relates to luciferase-tagged KP cells transplanted into immunocompetent recipient mice. In words: Orthotopic lung tumor model, survival and bioluminescence imaging. The experiment is classed as in vivo, mouse. The source says: FIG. 6: Imaging bortezomib response and resistance in an orthotopic lung tumor model. (6A) experimental design. Lung cancer cells derived from KP tumors were infected with a retrovirus expressing luciferase and transplanted into immunocompetent recipient mice by tail vein injection. (6B) Kaplan-Meier survival curve of control and bortezomib-treated recipient mice (n=6; P=1.4×10−5). A total of 10,000 cells were transplanted, and treatment started after 35 days. (6C) representative bioluminescence imaging of recipient mice (n=6) treated with vehicle control or bortezomib, as in 6B. D0 refers to the first treatment. Arrows indicate weekly bortezomib regimen.
(§1) FIG. 7: The NF-κB inhibitor Bay-117082 leads to lung tumor regression in vivo. (7A) quantitative PCR analysis of NF-κB target gene expression in KP cells treated with 10 μM Bay-117082 for indicated hours. Error bars are SD (n=3). (7B) Bay-117082 treatment leads to lung tumor regression and delays tumor progression in the orthotopic lung tumor model. A total of 50,000 luciferase-tagged KP cells were transplanted into recipient mice (n=6), and treatment was started at 19 days after transplantation (set at D0). Mice were treated with vehicle control or 10 mg/kg Bay-117082 by i.p. injection, and imaged at the indicated time points. Arrows indicate Bay-117082 injections. (7C) Bay-117082 prolongs survival in the KP model (n=6; P=0.008). “i.p. dosing” indicates treatment with 3 doses per week.
At indicated time points, mice were scanned for 15 min under isoflurane anesthesia, using a small animal eXplore Locus microCT (GE Healthcare) at 45-μm resolution, 80 kV, with 450-mA current (47). Images were acquired and processed using GE eXplore software. Bioluminescence imaging was performed as previously described (48). Mice were imaged for 60 seconds, and signals in the lung were quantified using Xenogen software.
To facilitate imaging of the bortezomib treatment response, we adapted a transplantation-based orthotopic lung cancer mouse model (37). As outlined in FIG. 6A, we infected KP cell lines with a retrovirus expressing firefly luciferase. The cells were transplanted into immunocompetent recipient mice by i.v. injection, resulting in the development of in situ lung tumors that could be imaged and quantified by bioluminescence imaging.
To determine whether bortezomib therapy was effective in the orthotopic model, we transplanted 10,000 KP cells into host mice and treated the mice 5 weeks later, either with control or with a weekly 4-dose regimen of bortezomib (37).

In a further experiment the test system is IKK kinase activity. As to conditions: cited from earlier work.
The next experiment has as its system NF-κB target genes. In words: Quantitative PCR of NF-κB target genes in KP cells. The class given is cell-based, mouse. Here is the method: (§2) FIG. 1. Bortezomib inhibits NF-κB signaling and induces apoptosis in murine lung adenocarcinoma cell lines. (1A) reduction of nuclear p65 level by bortezomib. Two KP (KrasLSL-G12D/wt;p53flox/flox) cell lines (KP1 and KP2) were treated with 5 nM bortezomib (BZ) or vehicle control (ctrl) for 24 hours. Nuclear (N) and cytoplasmic (C) fractions of protein lysates were immunoblotted with the indicated antibodies. NEMO and Parp serve as cytoplasmic and nuclear loading controls, respectively. (1B) quantitative PCR analysis of a subset of NF-κB target genes in 5 nM bortezomib (BZ)-treated KP cells at the indicated time points. Vehicle control is set to 1. (1C) apoptosis in KP and KP^M (KrasLSL-G12D/wt;p53R127H/−) cells induced by bortezomib. Cells were pre-treated with 5 nM bortezomib for 24 hours, and protein lysates were immunoblotted with CC3 and tubulin antibodies. (1D) quantification of cell death in bortezomib-treated cells. Cells were treated with the indicated concentrations of bortezomib for 24 hours, and dead cells were quantified by Trypan blue staining. Error bars are SD (n=3).
as §1
RNA was purified using TRIzol (Invitrogen), according to the manufacturer's instructions. One microgram of RNA was reverse transcribed using the High-Capacity cDNA Reverse Transcription Kit (Applied Biosystems). Real-time PCR (quantitative PCR) amplification was performed using Taqman probes (Applied Biosystems). Data were normalized to the Gapdh (mouse) or GAPDH (human) levels.

For a further experiment, the system named is KP mice. In words: Kaplan-Meier survival of KP mice. The experiment is classed as in vivo, mouse. Conditions: KP mice 8 weeks post Adeno-Cre, Bay-117082 10 mg/kg i.p. 3 times per week for 4 weeks; control 79.0±13.2 days; P=0.008.
The next experiment relates to KP and KP^M cells. In words: Cleaved caspase 3 (CC3) immunoblot in lung adenocarcinoma cells. Conditions: KP cell lines, 10IJM Bay-117082, 48 hours. The class given is cell-based, mouse. Here is the method:
as §2
FIG. 17: Bay-117082 induces cell death In KP cells. […] (17B) Bay-117082 induces apoptosis in KP cells. Cells were treated with 10IJM Bay-117082 for 48 hours. Protein lysates were immunoblotted with cleaved caspase 3 (CC3) and Tubulin antibodies.
Cell pellets were lysed in Laemmli buffer. […]
Background: A western blot detects proteins with antibodies after separation by electrophoresis.

The test system of a further experiment is KP and KP^M cell lines. In words: Cell viability assay (Cell Titer Aqueous Kit). As to conditions: KP cell lines, increasing doses of Bay-117082, 48 hours. The experiment is classed as cell-based, mouse. Here is the method: FIG. 2: Bortezomib sensitivity correlates with basal NF-κB activity in KP lung adenocarcinoma cell lines. […] 3TZ, diamond; LKR13, triangle; KP, solid lines; KPM, dashed lines. Error bars are SD (n=3). (2B) lung cancer cell lines with high basal NF-κB activity were sensitive to bortezomib. NF-κB p65 DNA-binding activity was determined by ELISA from nuclear extracts of KP cell lines and LKR13 cells (set as 1). Relative viability was measured after 5 nM bortezomib treatment, as in 2A. FIG. 17: Bay-117082 induces cell death In KP cells. […] (17B) Bay-117082 induces apoptosis in KP cells. Cells were treated with 10IJM Bay-117082 for 48 hours. […] Cell culture conditions were as described recently (30).

Experiment [2] concerns stress-activated protein kinases, p38 and JNK-1. Conditions: cited from earlier work.
Another experiment relates to Hmgsc2 mRNA. In words: Hmgsc2 mRNA in bortezomib resistant cells. Conditions: vs control shRNA. The class given is cell-based. The source says:
As shown in the data the control levels of Hmgsc2 are quite high in the control and low in the other samples.
The effects of Hmgsc2 expression in bortezomib resistant cells was examined to determine if Hmgsc2 would be a good therapeutic target for the treatment of NF-kB regulated lung cancers. […] As shown in the data the control levels of Hmgsc2 are quite high in the control and low in the other samples.

Protocol for KP mice: (5A and 5B) Kaplan-Meier survival curve of vehicle control and bortezomib-treated KP (5A) and K (5B) mice. Arrows indicate weekly 1 mg/kg bortezomib regimen. […] Arrows indicate bortezomib injection.
To initiate lung tumors, cohorts of K or KP mice of 129svJae background were infected with 2.5×10^7 plaque-forming units of Adeno-Cre (University of Iowa) by intranasal inhalation, as described previously (2, 28). Mice were given bortezomib (LC Labs) in PBS [0.5% dimethylsulfoxide (DMSO)] at 1 mg/kg body weight i.v., as indicated.
To analyze the long-term effects of bortezomib therapy, we investigated whether a 4-dose regimen of bortezomib (19) could prolong survival of tumor-bearing mice. Using a cohort of KP mice, we treated tumor-bearing animals 8 weeks after Adeno-Cre infection with bortezomib once a week for 4 weeks (FIG. 10A).

For the molecule `Cc1ccc(S(=O)(=O)/C=C/C#N)cc1` [Bay-117082], in experiment [1] (50,000 luciferase-tagged KP cells, 10 mg/kg Bay-117082 i.p., 0-9 days), the “lung tumor signal in the initial phase” value is “significantly reduced lung tumor signal”. For the same molecule, the lung tumor progression result in experiment [1] (orthotopic model, 10 mg/kg Bay-117082 i.p.) is “delayed lung tumor progression until 42 days”. The “tumor response under continuous treatment” value in experiment [1] (orthotopic model, 42-63 days) is reported as “eventually became refractory to therapy”. The IKK kinase activity entry in the experiment on IKK kinase activity is given as “inhibits”. Besides, in the experiment with NF-κB target genes (KP cells in vitro, FIG. 1B and FIG. 7A), the “Xiap inhibition, Bay-117082 compared with bortezomib” value is on record as “stronger”. The “expression of prosurvival NF-κB target genes such as Bcl2, Bclx1, Xiap” value in the experiment on NF-κB target genes (KP cells, 10 μM Bay-117082, indicated hours) is recorded as “downregulates”. The molecule also returned a survival with KP mice of 120.2 ± 27.0 days. Also, the “caspase 3 cleavage” value in the experiment with KP and KP^M cells is listed as “induced caspase 3 cleavage”. In addition, the “cell death (relative cell viability)” value with KP and KP^M cell lines is listed as “cell death”. Also, in experiment [2], the “effect on stress-activated protein kinases p38 and JNK-1” value is “stimulate”.
As for “insulin: positive control; represses Hmgcs2”, the “relative amount of Hmgsc2 mRNA” value in the experiment on Hmgsc2 mRNA is “low”.
